In patent US20100099122A1 (priority 2008, published 2010):
Entries after “also recorded” stand apart in the source; their conditions may differ. Like-named read-outs stand apart in the source and are kept apart here.

Assays:
[1] = molecular target: H. capsulatum Ggt1 (Histoplasma ohiense, UniProt A0ACF1AEB1); format: biochemical
[2] = system: H. capsulatum Ggt1 (GSH-FeR); format: biochemical, Histoplasma capsulatum; settings: inhibitor 0.1 mM, 15 min pretreatment, then removed by diafiltration, GSH-FeR activity
[3] = system: H. capsulatum Ggt1 (GSH-FeR); settings: cited from earlier work

| Compound | Glu transfer catalyzed by γ-Glutamyltransferase (Ggt1), effect of inhibitor [1] | Fe^3+ reduction catalyzed by γ-Glutamyltransferase (Ggt1), effect of inhibitor [2] | further results |
| --- | --- | --- | --- |
| N[C@H](C(=O)O)[C@@H]1CC(Cl)=NO1 [Acivicin, acivicin] | completely abolished; also recorded: Inhibition | Inhibition | Fe^3+ reduction catalyzed by γ-Glutamyltransferase (Ggt1), effect of inhibitor ([2]; listed as acivicin): completely abolished |
| [Al] [Aluminum, aluminum] | no inhibitory action; also recorded: No effect | strong inhibitory effect; also recorded: Inhibition | inhibition of GSH-FeR activity [3]: reversibly inhibited |
| [N-]=[N+]=CC(=O)CC[C@H](N)C(=O)O [DON, 6-diazo-5-oxo-L-norleucine] | completely abolished; also recorded: Inhibition | completely abolished; also recorded: Inhibition |  |
| N[C@@H](CCC(=O)Nc1ccc([N+](=O)[O-])cc1)C(=O)O [GpNA, γ-glutamyl-p-nitroanilide] |  |  | Km ([1]; read-out: apparent optimal Km for GpNA, glutamyl transfer reaction): ~840 µM; Km ([1]; read-out: apparent optimal Km for GpNA, hydrolysis): ~750 µM |
| N[C@@H](CS)C(=O)NCC(=O)O [cysteinylglycine] |  |  | ability to reduce iron compared to the activity of 1 mM GSH (1 mM): over 117 fold; iron reduction activity (ferrous iron generated) (0.5-1 mM): generated measurable amounts of ferrous iron; iron reduction by cysteinylglycine alone (pH 5.5): 2.85±0.08 μmol of Fe^2+ min^−1 (mmol CysGly)^−1 |
| [Ga] [gallium] | no inhibitory action; also recorded: No effect | strong inhibitory effect; also recorded: Inhibition | inhibition of GSH-FeR activity [3]: reversibly inhibited |
| serine/borate complex [SBC] | completely abolished; also recorded: Inhibition | completely abolished; also recorded: Inhibition |  |
